Results from publication PMC8500922 (Structure (London, England : 1993), 2021).

How the values were obtained:
[1] = target: T1, ternary SpNatC (Schizosaccharomyces pombe, UniProt O74311+Q9USY3); experiment: isothermal titration calorimetry; type: binding
T1 sequence (O74311 1-150): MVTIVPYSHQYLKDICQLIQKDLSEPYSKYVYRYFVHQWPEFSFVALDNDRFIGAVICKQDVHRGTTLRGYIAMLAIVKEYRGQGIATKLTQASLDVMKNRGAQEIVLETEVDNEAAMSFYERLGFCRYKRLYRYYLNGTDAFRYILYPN
T1 sequence (Q9USY3 31-708): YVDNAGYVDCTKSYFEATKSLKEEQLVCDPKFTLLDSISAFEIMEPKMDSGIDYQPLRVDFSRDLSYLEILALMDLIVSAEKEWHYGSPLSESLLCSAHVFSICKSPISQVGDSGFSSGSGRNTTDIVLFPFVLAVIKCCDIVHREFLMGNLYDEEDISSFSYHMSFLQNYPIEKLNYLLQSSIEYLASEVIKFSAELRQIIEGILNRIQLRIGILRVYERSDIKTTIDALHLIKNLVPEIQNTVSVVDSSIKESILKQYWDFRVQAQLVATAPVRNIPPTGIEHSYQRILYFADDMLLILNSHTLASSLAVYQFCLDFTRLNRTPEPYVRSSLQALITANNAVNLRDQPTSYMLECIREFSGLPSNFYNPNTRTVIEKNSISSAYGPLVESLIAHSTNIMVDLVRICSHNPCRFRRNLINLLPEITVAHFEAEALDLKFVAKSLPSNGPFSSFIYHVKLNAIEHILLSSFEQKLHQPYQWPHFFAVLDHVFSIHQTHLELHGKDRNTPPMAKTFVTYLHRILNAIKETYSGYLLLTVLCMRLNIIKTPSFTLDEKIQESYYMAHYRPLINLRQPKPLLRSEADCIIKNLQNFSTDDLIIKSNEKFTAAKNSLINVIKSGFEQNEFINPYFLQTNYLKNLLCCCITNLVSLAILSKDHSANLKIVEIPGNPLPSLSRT
T1 sequence (O43080 4-72 partner limits assumed): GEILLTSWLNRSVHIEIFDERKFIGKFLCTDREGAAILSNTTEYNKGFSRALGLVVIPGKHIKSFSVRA

[2] = target: T2, SpNatA (Schizosaccharomyces pombe, UniProt O74985+Q9UTI3); experiment: […] acetyltransferase assay with and without IP6; type: biochemical; settings: 2 μM IP6, 50 μM Ac-CoA, 50 μM SASE peptide, pH 7.0, room temperature
T2 sequence (Q9UTI3 1-156): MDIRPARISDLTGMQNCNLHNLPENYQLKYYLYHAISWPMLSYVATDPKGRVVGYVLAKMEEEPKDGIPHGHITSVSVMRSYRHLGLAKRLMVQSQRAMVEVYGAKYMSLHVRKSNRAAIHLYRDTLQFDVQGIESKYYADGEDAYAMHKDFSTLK
T2 sequence (O74985 1-729): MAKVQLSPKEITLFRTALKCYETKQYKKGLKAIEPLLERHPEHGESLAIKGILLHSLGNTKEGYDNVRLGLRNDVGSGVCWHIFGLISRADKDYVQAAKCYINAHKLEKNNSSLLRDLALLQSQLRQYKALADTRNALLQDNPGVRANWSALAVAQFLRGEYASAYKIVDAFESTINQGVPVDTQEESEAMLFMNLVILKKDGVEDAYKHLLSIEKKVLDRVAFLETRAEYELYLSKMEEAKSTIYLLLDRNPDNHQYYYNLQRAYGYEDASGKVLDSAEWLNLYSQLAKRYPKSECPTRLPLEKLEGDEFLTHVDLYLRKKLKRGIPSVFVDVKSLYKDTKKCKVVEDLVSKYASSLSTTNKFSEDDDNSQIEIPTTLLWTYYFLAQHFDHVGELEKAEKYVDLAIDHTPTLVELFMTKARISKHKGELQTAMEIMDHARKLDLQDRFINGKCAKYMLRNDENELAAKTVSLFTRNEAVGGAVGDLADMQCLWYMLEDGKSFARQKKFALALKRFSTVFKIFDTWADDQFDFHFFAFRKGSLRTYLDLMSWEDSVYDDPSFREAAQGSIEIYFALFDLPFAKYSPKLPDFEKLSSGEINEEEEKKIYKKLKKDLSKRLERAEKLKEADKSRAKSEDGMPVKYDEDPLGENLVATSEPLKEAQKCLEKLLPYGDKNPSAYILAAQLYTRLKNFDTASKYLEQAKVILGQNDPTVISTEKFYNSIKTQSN

[3] = target: hNatB (Homo sapiens, UniProt P61599); experiment: […] acetyltransferase assay with and without IP6; type: biochemical; settings: 2 μM IP6, 50 μM Ac-CoA, 50 μM MDVF peptide, pH 7.0, room temperature
Chain of hNatB (P61599 1-163): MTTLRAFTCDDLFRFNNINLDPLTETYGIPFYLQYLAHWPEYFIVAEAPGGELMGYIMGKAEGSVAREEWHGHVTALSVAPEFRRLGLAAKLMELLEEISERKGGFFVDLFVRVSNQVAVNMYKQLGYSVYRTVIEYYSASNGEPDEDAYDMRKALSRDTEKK
Chain of hNatB (Q14CX7 whole entry partner): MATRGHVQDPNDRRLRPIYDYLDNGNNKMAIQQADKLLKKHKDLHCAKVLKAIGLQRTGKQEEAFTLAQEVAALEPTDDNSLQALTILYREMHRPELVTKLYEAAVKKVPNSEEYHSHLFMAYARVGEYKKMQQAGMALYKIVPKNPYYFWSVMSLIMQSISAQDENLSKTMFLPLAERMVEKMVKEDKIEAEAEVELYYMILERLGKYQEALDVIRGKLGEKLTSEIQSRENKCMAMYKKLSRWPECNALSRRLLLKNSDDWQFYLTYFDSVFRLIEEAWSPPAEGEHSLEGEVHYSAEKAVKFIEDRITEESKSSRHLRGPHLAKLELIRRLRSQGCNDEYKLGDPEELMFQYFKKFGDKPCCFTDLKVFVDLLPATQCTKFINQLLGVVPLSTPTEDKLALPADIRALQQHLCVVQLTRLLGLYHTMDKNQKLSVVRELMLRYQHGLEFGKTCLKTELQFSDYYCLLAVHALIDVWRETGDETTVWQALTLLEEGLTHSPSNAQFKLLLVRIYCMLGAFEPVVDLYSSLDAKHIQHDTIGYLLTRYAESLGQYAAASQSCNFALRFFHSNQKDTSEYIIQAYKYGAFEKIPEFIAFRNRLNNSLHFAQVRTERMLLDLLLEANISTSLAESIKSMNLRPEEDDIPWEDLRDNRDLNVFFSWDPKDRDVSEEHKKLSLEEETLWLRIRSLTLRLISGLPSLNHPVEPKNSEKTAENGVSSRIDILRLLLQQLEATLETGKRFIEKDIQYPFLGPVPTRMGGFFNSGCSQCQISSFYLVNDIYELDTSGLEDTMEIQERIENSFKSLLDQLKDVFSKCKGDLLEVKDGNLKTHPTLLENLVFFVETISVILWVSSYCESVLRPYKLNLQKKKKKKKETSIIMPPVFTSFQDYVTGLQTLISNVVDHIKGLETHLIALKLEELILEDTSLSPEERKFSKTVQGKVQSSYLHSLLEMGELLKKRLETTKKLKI

O=P(O)(O)O[C@H]1[C@H](OP(=O)(O)O)[C@@H](OP(=O)(O)O)[C@H](OP(=O)(O)O)[C@@H](OP(=O)(O)O)[C@H]1OP(=O)(O)O [IP6, inositol hexaphosphate]
Kd [1]: ~225 nM
modest inhibition at 2 μM [2]: produced a relatively modest inhibitory effect, as it also did for SpNatA and hNatB
modest inhibition at 2 μM [3]: produced a relatively modest inhibitory effect, as it also did for SpNatA and hNatB
